{"source": "patent US11357748B2", "about": "“Methods for treating mendelian disorders of the epigenetic machinery” (THE JOHNS HOPKINS UNIVERSITY, priority 2014, dated 2022)", "test_system": "H3K4 trimethylation activity in Kmt2d+/βGeo MEFs", "assay": "H3K4me3 indicator in murine embryonic fibroblasts (MEFs) from Kmt2d+/βGeo and Kmt2d+/+ mice", "assay_type": "cell-based, mouse", "details": "FIG. 18H", "description": "An H3K4 trimethylation reporter was also created (FIG. 5B). This reporter is based on the H3 tail on one end and the TBP associated factor III (TAFIII) […] on the other end; the TAFIII […] only identifies and binds to trimethylated K4 on H3. When the H3K4 site gets trimethylated, the TAFIII […] can bind to the modified H3 tail and bring the two parts of the separated GFP in close proximity. The activity of the epigenetic modification system can be quantified through fluorescence.\nEpigenetic reporter alleles were synthesized (OriGene, Rockville, Md.) using published sequences for component elements (Baird et al. (1999) Proc. Natl. Acad. Sci. 96:11241-6; Souslova et al. (2007) BMC Biotechnol. 7:37). Single nucleotide mutations were created using the QuickChange Lightening kit (Agilent Technologies Inc, Santa Clara, Calif.). For H4ac indicator, K5R, K8R, K12R, K16R and K20R (MUT indicator) were introduced. For H3K4me3 indicator, K4Q and D890A/W891A and M882A (three separate constructs) were introduced. […] FACS data were analyzed using FlowJo (Tree Star Inc, Ashland, Oreg.). […]\nEpigenetic reporter systems were created that monitor either H4 acetylation or H3K4 trimethylation machinery activity in an effort to determine whether there is an ongoing activity deficiency in cells from Kmt2d^+/βGeo mice (FIG. 18A). Both reporter alleles encode halves of green fluorescent protein separated by a flexible linker region (Baird et al. (1999) Proc. Natl. Acad. Sci. 96: 11241-6) with a histone tail and a histone reader at the N- and C-termini, respectively. When the histone tail corresponding to either H4 or H3 is modified by acetylation or methylation, respectively, GFP structure and function are reconstituted, as detected by a fluorescent readout (FIG. 18B). The acetyl reporter protein quantifies the activity of the acetylation machinery (acetylation of H4 specifically at sites K5, K8, K12, and K16) and comprises an H4 tail (residues 1-30) on one end and a TATA binding protein (TBP)-associated factor II (TAFII) bromodomain on the other end (FIG. 18A). […]", "data": [{"compound": "CC(C)[C@H](C(=O)Nc1ccc(C(=O)NO)cc1)c1ccccc1", "note": "[AR-42, (S)—N-hydroxy-4-(3-methyl-2-phenylbutanamido)benzamide]", "values": [{"measurement": "H3K4 trimethylation activity in Kmt2d+/βGeo cells upon treatment", "setting": "Kmt2d+/βGeo MEFs, 22A, 23", "value": "enhanced"}, {"measurement": "H3K4me3 indicator activity in MEFs", "setting": "both genotypes (Kmt2d+/+ and Kmt2d+/βGeo)", "value": "dose-dependent response"}]}]}
